{"source": "patent US20250161260A1", "about": "“USE OF DELTA-TOCOTRIENOL TO REDUCE THE PROGRESSION OF A NEOPLASM TO A CANCER” (H. LEE MOFFITT CANCER CENTER AND RESEARCH INSTITUTE, INC., priority 2022, published 2025)", "molecules": {"B1": {"name": "DKK1: Wnt antagonist (protein, UniProt O94907 32-266, looked up)", "Dickkopf-related protein 1": "TLNSVLNSNAIKNLPPPLGGAAGHPGSAVSAAPGILYPGGNKYQTIDNYQPYPCAEDEECGTDEYCASPTRGGDAGVQICLACRKRRKRCMRHAMCCPGNYCKNGICVSSDQNHFRGEIEETITESFGNDHSTLDGYSRRTTLSSKMYHTKGQEGSVCLRSSDCASGLCCARHFWSKICKPVLKEGQVCTKHRRKGSHGLEIFQRCYCGEGLSCRIQKDHHQASNSSRLHTCQRH"}}, "key": {"LGKC1 cells [1]": {"system": "LGKC1 cells", "assay": "Apoptosis by flow cytometry (annexin V / propidium iodide), LGKC1", "assay_type": "cell-based, murine", "conditions": "LGKC1, IC50 dose, 48 h", "method": "(§1) LGKC1 (9A, 9C, 9E) and LGKC2 (9B, 9D, 9E) cells were treated with IC50 dose of DT 3 for 48 h. Apoptosis was measured by flow cytometry following annexin V and propidium iodide staining (9A, 9B). For cell cycle analysis by flow cytometry (9C, 9D) cells were synchronized with double thymidine block prior to treatment with DT 3. Following the treatment, cell lysates were prepared and impact on downstream signaling was performed by immunoblotting using the indicated antibodies (9E) and subjected to RNA sequencing (9F).\n(§2) To determine if the reduced cell proliferation of IPMN cells by DT3 were due to its impact on cell cycle or cell death, we assayed apoptosis and cell cycle analysis by flow cytometry. […] RNA seq analysis of the treated cells further indicated significant upregulation of biological processes associated with programmed cell death, cell proliferation, immune response, and collagen fibril organization (FIG. 9F)."}, "LGKC2 cells [2]": {"system": "LGKC2 cells", "assay": "Apoptosis by flow cytometry (annexin V / propidium iodide), LGKC2", "assay_type": "cell-based, murine", "conditions": "LGKC2, IC50 dose, 48 h", "method": "as §1, §2"}, "[3]": {"system": "β-catenin expression in HPNE-Kras cells", "assay": "β-catenin expression in HPNE-Kras cells", "assay_type": "cell-based"}, "[4]": {"system": "β-catenin expression in 3T3 cells", "assay": "β-catenin expression in 3T3 cells", "assay_type": "cell-based"}, "[5]": {"conditions": "human, in vivo", "method": "(§3) DT3 has been widely used as a dietary supplement for its presumptive benefit in promoting health by decreasing serum cholesterol levels. […] In an NCI-sponsored phase 1 study (NCT00985777), we enrolled 9 out of 25 patients with IPMNs who were treated with DT3 for 2 weeks. […] In our IHC analyses of tumor specimens, we observed a significant induction of cleaved caspase-3 and BAX in the IPMN neoplastic cells of 7 of 9 patients (77%) treated at doses of 100 mg orally twice daily or higher (FIG. 1). We identified 400 mg BID as a Biological Effective Dose (BED) for DT3 in our phase I trial^33. Therefore, we propose to confirm DT3 activity on IPMNs at 400 mg twice daily in a phase II trial, since this was the most bioactive dose observed in our phase I trial."}, "[6]": {"system": "Wnt receptor activity in 3T3 cells", "assay": "Wnt receptor activity (luciferase units) in 3T3 cells", "assay_type": "cell-based", "conditions": "after Wnt3a"}, "[7]": {"system": "β-catenin expression in PCSCs", "assay": "β-catenin expression in human PC stem cells (PCSCs)", "assay_type": "cell-based", "conditions": "less inhibition with DT 3 without Wnt3a pretreatment"}, "IPMN neoplastic cells": {"system": "IPMN neoplastic cells", "assay": "IHC of cleaved caspase-3 and BAX in tumor specimens of patients treated with DT3", "assay_type": "in vivo, human", "method": "Lower panel is IHC stained for the pro-apoptotic protein Bax, illustrating the association of DT 3 induction of apoptosis with increased expression of Bax\nas §3"}, "LGKC1 cells [8]": {"system": "LGKC1 cells", "assay": "Immunoblotting of downstream signaling, LGKC1", "assay_type": "cell-based, murine", "conditions": "LGKC1, IC50 dose", "method": "as §1, §2"}, "LGKC1 cells [9]": {"system": "LGKC1 cells", "assay": "Cell cycle analysis by flow cytometry, LGKC1", "assay_type": "cell-based, murine", "conditions": "LGKC-1, IC50 dose, 48 h, double thymidine block", "method": "as §1, §2"}, "LGKC2 cells [10]": {"system": "LGKC2 cells", "assay": "Cell cycle analysis by flow cytometry, LGKC2", "assay_type": "cell-based, murine", "conditions": "LGKC-2, IC50 dose, 48 h, double thymidine block", "method": "as §1, §2"}, "HPNE cells": {"system": "HPNE cells", "assay": "Apoptosis (C-PARP) in HPNE cells", "assay_type": "cell-based"}, "LGKC2 cells [11]": {"system": "LGKC2 cells", "assay": "Cell proliferation by MTT assay, LGKC2", "assay_type": "cell-based, murine", "conditions": "LGKC2, 48 h", "method": "(§4) LGKC1 (left) and LGKC2 cells were treated with varying doses of DT3 for 24, 48, and 72 h and cell proliferation were measured by MTT assay.\n(§5) We further studied the effect of DT3 on the proliferation of recently described murine IPMN cell lines LGKC1 & LGKC2 derived from constitutively active Kras and Gnas murine model of pancreatic cystic lesions [p48-Cre; KrasG12D; Rosa26R-rtTA-TetO-GnasR201C]. […] These IC50 doses were used for downstream functional studies in LGKC1 and LGKC2 cell lines."}, "HPNE-Kras cells": {"system": "HPNE-Kras cells", "assay": "Apoptosis (C-PARP) and signaling protein expression in HPNE-Kras cells", "assay_type": "cell-based"}, "LGKC2 cells [12]": {"system": "LGKC2 cells", "assay": "Immunoblotting of downstream signaling, LGKC2", "assay_type": "cell-based, murine", "conditions": "LGKC2, IC50 dose", "method": "as §1, §2"}, "LGKC1 cells [13]": {"system": "LGKC1 cells", "assay": "Cell proliferation by MTT assay, LGKC1", "assay_type": "cell-based, murine", "conditions": "LGKC1, 48 h", "method": "as §4, §5"}, "[14]": {"conditions": "100 mg orally twice daily or higher, 2 weeks"}}, "data": [{"molecule": "CC(C)=CCC/C(C)=C/CC/C(C)=C/CC[C@]1(C)CCc2cc(O)cc(C)c2O1", "note": "[DT3, δ-tocotrienol]", "values": [{"measurement": "apoptosis", "setting": "LGKC1 cells [1]", "result": "induced apoptosis"}, {"measurement": "apoptosis", "setting": "LGKC2 cells [2]", "result": "induced apoptosis"}, {"measurement": "β-catenin expression", "setting": "[3]", "result": "abolished"}, {"measurement": "Wnt agonist-induced β-catenin expression", "setting": "[4]", "result": "inhibited"}, {"measurement": "half-life", "setting": "[5]", "result": "approximately 4 hours"}, {"measurement": "toxicity (dose-limiting toxicities, drug-related adverse events, postoperative complications)", "setting": "[5]", "result": "no evidence of toxicity"}, {"measurement": "agonist (Wnt3a)-induced Wnt receptor activity (luciferase units)", "setting": "[6]", "result": "significantly inhibited"}, {"measurement": "β-catenin expression", "setting": "[7]", "result": "abolished"}, {"measurement": "patients with significant induction of cleaved caspase-3 and BAX in IPMN neoplastic cells", "setting": "IPMN neoplastic cells; [14]", "result": "7 of 9"}, {"measurement": "percent of patients with significant induction of cleaved caspase-3 and BAX in IPMN neoplastic cells", "setting": "IPMN neoplastic cells; [14]", "result": 77, "unit": "%"}, {"measurement": "apoptosis as measured by cleaved caspase-3 expression (IHC)", "setting": "IPMN neoplastic cells; patients with IPMN", "result": "significantly induced apoptosis"}, {"measurement": "expression of b-catenin", "setting": "LGKC1 cells [8]", "result": "no effect"}, {"measurement": "p-AKT, p-ERK1/2, cyclin D1", "setting": "LGKC1 cells [8]", "result": "significant reduction"}, {"measurement": "pGSK3β and cleaved PARP", "setting": "LGKC1 cells [8]", "result": "upregulation"}, {"measurement": "cell cycle progression", "setting": "LGKC1 cells [9]", "result": "G2/M arrest and accumulation of cells in S-phase"}, {"measurement": "cell cycle progression", "setting": "LGKC2 cells [10]", "result": "no effect on cell cycle progression"}, {"measurement": "apoptosis (C-PARP)", "setting": "HPNE cells", "result": "not in HPNE cells"}, {"measurement": "IC50", "setting": "LGKC2 cells [11]", "result": 29.4, "unit": "µM"}, {"measurement": "apoptosis (C-PARP)", "setting": "HPNE-Kras cells", "result": "selectively induced apoptosis"}, {"measurement": "expression of MUC4, MUC16, β-catenin and downstream proteins (C-myc, cyclin D1, survivin)", "setting": "HPNE-Kras cells", "result": "decreased the expression"}, {"measurement": "pAKT and pERK", "setting": "HPNE-Kras cells", "result": "inhibited"}, {"measurement": "expression of b-catenin", "setting": "LGKC2 cells [12]", "result": "no effect"}, {"measurement": "p-AKT, p-ERK1/2, cyclin D1", "setting": "LGKC2 cells [12]", "result": "significant reduction"}, {"measurement": "pGSK3β and cleaved PARP", "setting": "LGKC2 cells [12]", "result": "upregulation"}, {"measurement": "IC50", "setting": "LGKC1 cells [13]", "result": 25.3, "unit": "µM"}]}, {"molecule": "B1", "values": [{"measurement": "β-catenin expression", "setting": "[3]", "result": "abolished"}, {"measurement": "Wnt agonist-induced β-catenin expression", "setting": "[4]", "result": "inhibited"}, {"measurement": "agonist (Wnt3a)-induced Wnt receptor activity (luciferase units)", "setting": "[6]", "result": "inhibited"}, {"measurement": "β-catenin expression", "setting": "[7]", "result": "abolished"}]}]}
